ChEMBL document CHEMBL1158793, “Taxezopidines M and N, taxoids from the Japanese yew, Taxus cuspidata” (J Nat Prod, 2005)
Activity calls are given as the source filed them. No cut-off for these calls is given here.

Experiments:
[1] = Inhibition of CaCl2-microtubule depolymerization at 50 uM by spectrophotometry
KB = assay: Cytotoxicity against human KB cells at 10 ug/ml; type: functional, cell-based
L1210 = assay: Cytotoxicity against mouse L1210 cells at 10 ug/ml; type: functional, cell-based
[2] = Inhibition of CaCl2-induced microtubule depolymerization at 5 uM by spectrophotometry

| Activity [1] | Activity [2] | SMILES | Activity (KB) | Activity (L1210) |
| --- | --- | --- | --- | --- |
| Active |  | C=C1[C@@H](OC(=O)C[C@H](c2ccccc2)N(C)C)CC[C@@]2(C)[C@@H](OC(C)=O)[C@H](OC(C)=O)C3=C(C)[C@]4(O)C[C@@H]([C@@H](OC(C)=O)[C@H]12)[C@@]3(C)CO4 | inactive | inactive |
|  | Active | CC(=O)O[C@H]1C(=O)[C@@]2(C)[C@H]([C@H](OC(=O)c3ccccc3)[C@]3(O)C[C@H](OC(=O)[C@H](O)[C@@H](NC(=O)c4ccccc4)c4ccccc4)C(C)=C1C3(C)C)[C@]1(OC(C)=O)CO[C@@H]1C[C@@H]2O |  |  |
|  |  | C=C1[C@@H](OC(=O)C[C@H](c2ccccc2)N(C)C)C[C@H](OC(C)=O)[C@@]2(C)[C@@H](OC(C)=O)[C@H](OC(C)=O)[C@]3(O)[C@@]4(C)CO[C@]3(C)C(=O)C[C@H]4[C@@H](OC(C)=O)[C@H]12 | inactive | inactive |
